How the values were obtained:
CD13 = target: T1, CD13 (Mus musculus, UniProt P97449); assay: Dual-isotope micro-SPECT, SUV of 111In-labeled NGR tracers in heart segments of MI mice; assay type: in vivo, Swiss mice; conditions: MI mice 7 days after LAD ligation, mean ± SEM
T1 construct: the level of CD13 expression was markedly higher in the infarcted myocardium of MI animals; from tissue; host or cells: heart (myocardium) of living Swiss mice, 7 days after MI
T1 sequence (P97449 1-966): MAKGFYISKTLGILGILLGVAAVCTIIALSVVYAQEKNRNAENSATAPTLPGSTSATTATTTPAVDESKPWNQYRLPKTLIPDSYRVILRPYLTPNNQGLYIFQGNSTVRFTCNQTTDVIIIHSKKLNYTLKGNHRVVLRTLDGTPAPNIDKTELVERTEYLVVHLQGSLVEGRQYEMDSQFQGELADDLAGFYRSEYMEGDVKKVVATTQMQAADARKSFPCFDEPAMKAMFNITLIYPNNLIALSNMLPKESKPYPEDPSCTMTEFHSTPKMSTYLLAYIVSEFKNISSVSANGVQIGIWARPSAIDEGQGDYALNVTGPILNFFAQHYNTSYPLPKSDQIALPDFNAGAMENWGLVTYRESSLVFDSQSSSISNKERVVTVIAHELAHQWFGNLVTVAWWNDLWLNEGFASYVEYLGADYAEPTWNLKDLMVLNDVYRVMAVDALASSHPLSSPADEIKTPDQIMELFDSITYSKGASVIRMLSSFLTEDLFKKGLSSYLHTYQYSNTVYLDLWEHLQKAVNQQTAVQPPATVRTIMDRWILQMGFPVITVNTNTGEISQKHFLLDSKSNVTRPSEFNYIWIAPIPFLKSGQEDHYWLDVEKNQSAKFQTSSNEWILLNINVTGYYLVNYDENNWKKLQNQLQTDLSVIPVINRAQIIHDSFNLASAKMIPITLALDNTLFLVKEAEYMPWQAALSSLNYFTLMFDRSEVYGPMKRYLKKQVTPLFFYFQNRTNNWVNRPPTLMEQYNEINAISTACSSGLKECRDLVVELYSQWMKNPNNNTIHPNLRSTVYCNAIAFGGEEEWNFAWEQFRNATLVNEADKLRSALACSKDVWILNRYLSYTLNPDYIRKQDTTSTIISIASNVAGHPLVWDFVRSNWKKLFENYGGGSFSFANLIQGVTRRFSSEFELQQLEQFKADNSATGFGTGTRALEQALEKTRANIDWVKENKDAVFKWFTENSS
Protocol: (§1) In 10–12-week-old male Swiss mice, we induced MI by ligation of the left anterior descending coronary artery (LAD) as described before to test coNGR (n = 5) or co(NGR)4 (n = 8). A group of sham-operated Swiss mice (n = 5) was used as control. SPECT imaging was performed 7 days after MI or sham surgery. All animals were held under the guidelines of the animal care facility (Maastricht University). All animal experiments were approved by the Committee for Animal Welfare of Maastricht University.
Mice were anesthetized with isoflurane (induction 2.5%; maintenance 1.5%), a catheter was placed in a tail vein, and animals were positioned in the SPECT camera (MILabs, Utrecht, The Netherlands). Prior to image acquisition, a bolus injection of ^99mTc-sestamibi and ^111In-coNGR or ^111In-co(NGR)4 was given intravenously (i.v.) in a maximum volume of 200 µL. Table S1 in Supplementary Material available online at https://doi.org/10.1155/2017/8638549 provides an overview of the average injected dose. Immediately after injection, 4 consecutive time frames of 15 min each were acquired. For image quantification we used the last of these frames.
Acquired list mode data was reconstructed using MILabs reconstruction software (version 2.51) employing the POS-EM algorithm (6 iterations and 16 subsets, reconstructed at a voxel size of 0.4 mm). ^99mTc and ^111In images were reconstructed by selecting photo peak and background energy levels as described before.
To allow quantification of imaging agent uptake, in vivo isotope-specific conversion factors (CF) were determined for the 0.6 mm collimator in a representative phantom with a known activity. Using the previously described method the following conversion factors (CF), CF99mTc 612 MBq/mL and CF111In 643 MBq/mL, were found.
PMOD 3.7 cardiac tool PCARD (PMOD technologies, Zürich, Switzerland) was used to segment the heart in the 17-segment model. Uptake per segment was subsequently expressed as a mean standardized uptake value (SUVmean), also using the previously described method. For body weight, we assumed that 1 g equalled 1 mL.

[1] = parameters: species or system Swiss mice; conditions: mouse, in vivo
Protocol: as §1, with “University. After imaging, the vital organs were harvested and kept for gamma-counting (Wallac Wizard, Turku, Finland). Acquired data were expressed as percentage injected dose per gram tissue (% ID/g).” for “University.”

[2] = Octanol/water partition coefficient (logP); assay type: physicochemical; conditions: 111In-labeled tracer, separate experiment 2 of 3, N = 3, method as ref 22
Protocol: The logP value of each compound was determined in three separate experiments as described previously.

in vitro = in vitro ADME; conditions: human, whole blood
Protocol: ^111[…], or ^111In-co(NGR)4 was added to […] human blood in heparin (BD Biosciences, […], The Netherlands). Blood stability was tested at 0, 10, 30, and 50 min. For each time point imaging agents were separated from blood cells and proteins by adding 0.5 mL MeCN (VWR International BV, Breda, The Netherlands) to 0.5 mL blood sample followed by centrifugation (2,000 ×g, 3 min). Supernatant samples were analyzed by HPLC using the above-mentioned method.

[3] = 111In tracer i.v., last of 4 15-min SPECT frames, SUVmean, 17-segment model, n = 5 coNGR, n = 8 co(NGR)4
[4] = 111In-labeled tracer i.v., last of 4 consecutive 15 min SPECT frames

- SUV of NGR imaging agent, segment 1. Basal anterior (CD13; [3]): 0.37 ± 0.06
- SUV of NGR imaging agent, segment 2. Basal anteroseptal (CD13; [3]): 0.37 ± 0.05
- SUV of NGR imaging agent, segment 3. Basal inferoseptal (CD13; [3]): 0.40 ± 0.05
- SUV of NGR imaging agent, segment 4. Basal inferior (CD13; [3]): 0.41 ± 0.06
- SUV of NGR imaging agent, segment 5. Basal inferolateral (CD13; [3]): 0.46 ± 0.07
- SUV of NGR imaging agent, segment 6. Basal anterolateral (CD13; [3]): 0.40 ± 0.07
- SUV of NGR imaging agent, segment 7. Mid anterior (CD13; [3]): 0.32 ± 0.04
- SUV of NGR imaging agent, segment 8. Mid anteroseptal (CD13; [3]): 0.36 ± 0.03
- SUV of NGR imaging agent, segment 9. Mid inferoseptal (CD13; [3]): 0.59 ± 0.06
- SUV of NGR imaging agent, segment 10. Mid inferior (CD13; [3]): 0.56 ± 0.08
- SUV of NGR imaging agent, segment 11. Mid inferolateral (CD13; [3]): 0.44 ± 0.07
- SUV of NGR imaging agent, segment 12. Mid anterolateral (CD13; [3]): 0.40 ± 0.05
- SUV of NGR imaging agent, segment 13. Apical anterior (CD13; [3]): 0.54 ± 0.07
- SUV of NGR imaging agent, segment 14. Apical septal (CD13; [3]): 0.80 ± 0.09
- SUV of NGR imaging agent, segment 15. Apical inferior (CD13; [3]): 0.82 ± 0.08
- SUV of NGR imaging agent, segment 16. Apical lateral (CD13; [3]): 0.54 ± 0.06
- SUV of NGR imaging agent, segment 17. Apex (CD13; [3]): 0.76 ± 0.10
- SUV in segments affected by MI (CD13; [4]): 0.57 ± 0.03
- SUV in segments not affected by MI (CD13; [4]): 0.43 ± 0.02
SMILES: N=C(N)NCCC[C@@H]1NC(=O)CNC(=O)[C@H](CC(N)=O)NC(=O)[C@H](CSC2CC(=O)N(CC3CCC(C(=O)NCCCC[C@H](NC(=O)C4CCC(CN5C(=O)CC(SC[C@@H]6NC(=O)CNC(=O)[C@H](CCCNC(=N)N)NC(=O)CNC(=O)[C@H](CC(N)=O)NC6=O)C5=O)CC4)C(=O)NCCCC[C@H](NC(=O)[C@H](CCCCNC(=O)C4CCC(CN5C(=O)CC(SC[C@@H]6NC(=O)CNC(=O)[C@H](CCCNC(=N)N)NC(=O)CNC(=O)[C@H](CC(N)=O)NC6=O)C5=O)CC4)NC(=O)C4CCC(CN5C(=O)CC(SC[C@@H]6NC(=O)CNC(=O)[C@H](CCCNC(=N)N)NC(=O)CNC(=O)[C@H](CC(N)=O)NC6=O)C5=O)CC4)C(=O)N[C@@H](CCCCNC(=O)[C@@H](N)CSC4CC(=O)N(CC5CCC(C(=O)NCCCCC(C(=O)O)N(CCN(CC(=O)O)CC(=O)O)CCN(CC(=O)O)CC(=O)O)CC5)C4=O)C(N)=O)CC3)C2=O)NC(=O)CNC1=O (some centres unmarked) [co(NGR)4]
- kidney uptake [1]: Substantial kidney uptake
- urinary excretion ([1]; iv): 54.9 ± 9.1 % ID/g
- logP2 [2]: −3.64 ± 0.03
- remaining at 50 min (in vitro): 25.3%
